PubChem BioAssay (NCI)
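Growth conditions: 96-well plates. Treatment: test compound, 48 hours, 5 concentrations. Analysis: linear interpolation between bracketing concentrations; unreached endpoints set to highest concentration. Abbreviation: GI50, concentration required for 50% inhibition of growth. The concentration for full growth arrest is given as TGI.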

Assays:
Assay in all cases: growth of human tumour cells (NCI), 48 h
ACHN renal = system: ACHN renal
SK-MEL-28 melanoma = system: SK-MEL-28 melanoma
T-47D breast = system: T-47D breast
HS 578T breast = system: HS 578T breast
NCI-H226 lung = system: NCI-H226 lung
UACC-62 melanoma = system: UACC-62 melanoma
BT-549 breast = system: BT-549 breast
U251 CNS = system: U251 CNS
PC-3 prostate = system: PC-3 prostate
HT29 colon = system: HT29 colon

| Structure (SMILES) | GI50 (ACHN renal) [µM] | TGI (ACHN renal) [µM] | GI50 (SK-MEL-28 melanoma) [µM] | TGI (SK-MEL-28 melanoma) [µM] | GI50 (T-47D breast) [µM] | TGI (T-47D breast) [µM] | GI50 (HS 578T breast) [µM] | TGI (HS 578T breast) [µM] | GI50 (NCI-H226 lung) [µM] | TGI (NCI-H226 lung) [µM] | GI50 (UACC-62 melanoma) [µM] | TGI (UACC-62 melanoma) [µM] | GI50 (BT-549 breast) [µM] | TGI (BT-549 breast) [µM] | GI50 (U251 CNS) [µM] | TGI (U251 CNS) [µM] | GI50 (PC-3 prostate) [µM] | TGI (PC-3 prostate) [µM] | GI50 (HT29 colon) [µM] | TGI (HT29 colon) [µM] |
| --- | --- | --- | --- | --- | --- | --- | --- | --- | --- | --- | --- | --- | --- | --- | --- | --- | --- | --- | --- | --- |
| CCCCCCCCCCCCCCCC1=NC(C)(C)CN1C(C)C | 1.52 | 2.84 | 1.64 | 3 | 1.93 | 4.54 | 1.62 | 3.87 | 2.13 | 6.6 | 1.67 | 3.14 | 5.12 | 23.7 | 1.51 | 2.84 | 1.37 | 3.68 |  |  |
| CC(=O)c1nc2ccccc2n1CC(=O)c1cccc(Cl)c1 | 1.08 | > 100 | 0.437 | > 54.3 | 0.881 | > 100 |  |  | 3.39 | > 44.2 | 0.416 | 7.29 | 1.12 | > 100 | 0.534 | > 100 | 1.12 | > 100 | 11.6 | > 100 |
| O=C(CCC(=O)C1CCC/C1=N/O)Nc1ccc(Cl)cc1 (stereo not given) |  | > 100 |  | > 100 |  |  |  |  |  | > 100 |  | > 100 |  |  |  | > 100 |  |  |  | > 100 |
| O=C(O)/C(=C\c1ccncc1)c1cccc2ccccc12 |  |  |  | > 100 |  | > 100 |  | > 100 |  |  |  |  |  | > 100 |  | > 100 |  | > 100 |  | > 100 |
| O=C(CCc1ccc(O)cc1)N/N=C/c1cc(Br)ccc1O | 3.33 | > 100 | 5.72 | > 100 | 3.74 | 41.6 | 10.1 | > 100 |  |  | 2.44 | 7.02 | 4.19 | 44.8 | 3.2 | > 100 | 4.14 | > 100 | 23.7 | 99.4 |
| Cc1ccc(C(=O)CC2=Nc3nnc(CCCCCCCc4nnc5n4C(=O)C(CC(=O)c4ccc(C)cc4)=N5)n3C2=O)cc1 |  | > 100 |  | > 100 |  |  |  |  |  | > 100 |  | > 100 |  |  |  | > 100 |  |  |  | > 100 |
| CCCCCn1c(C)cc(/C=C\c2ccc3cc(C)ccc3[n+]2C)c1C | 0.239 | 1.15 | 0.339 | 1.71 | 0.0299 | 0.751 | 0.166 | 1.75 |  |  | 0.243 | 1.1 | 0.0699 | 0.664 | 0.0345 | 1.52 | 0.0623 | 1.03 | 0.0645 | 1.19 |
| Cc1ccc([C@]2(C)CC[C@H](C)/C2=C\Br)c(O)c1 | 7.5 | 26.1 | 5.07 | 17.6 | 6.45 | 27.9 | 2.95 | 15.7 |  |  | 3.71 | 14.1 | 5.4 | 19.3 | 4.03 | 14.4 | 4.2 | 17.7 | 2.52 | 6.65 |
| O=C1/C(=C/c2ccc(Br)cc2)CCC/C1=C\c1ccc(Br)cc1 |  | 29.8 |  | 14.1 |  |  |  |  |  |  |  | 39.9 |  |  |  | 20.5 |  |  |  | 4.27 |
| COc1cc2c3c(n(C)c(=O)c2cc1OC)-c1cc2c(cc1/C3=C\CCNCCCN)OCO2 | 1.3 | 6.89 | 2.87 | 91.8 | 2.64 | 15.3 | 2.84 | 9.52 | 0.987 | 5.02 |  |  | 4.65 | 21.1 | 0.47 | 3.44 | 2.09 | 10.2 | 1.86 | > 100 |
| O=[N+]([O-])c1ccc(C=NC23CC4CC(CC(C4)C2)C3)cc1 |  | > 100 |  | > 100 |  |  |  |  |  | > 100 |  | > 100 |  |  |  | > 100 |  |  |  | > 100 |
| Nc1c(C(=O)Nc2cccc(Cl)c2Cl)sc2nc3c(cc12)C(=O)CCC3 | > 100 | > 100 | > 100 | > 100 | > 100 | > 100 | > 100 | > 100 | > 100 | > 100 |  |  | > 100 | > 100 | > 100 | > 100 |  |  | > 100 | > 100 |
| OCCN1CCN(CC/C=C2/c3ccccc3Sc3ccc(Cl)cc32)CC1 |  | 29.7 |  | 3.38 |  |  |  |  |  | 28.2 |  | 6.78 |  |  |  | 25.6 |  |  |  | 6.9 |
| CC(=O)N/C(=C\c1ccc(Cc2nc3c([nH]2)C(=O)c2ccccc2C3=O)cc1)c1nc2c([nH]1)C(=O)c1ccccc1C2=O |  | > 100 |  | > 100 |  |  |  |  |  | > 100 |  |  |  |  |  | > 100 |  |  |  | > 100 |
| N#CCC(=O)N1CCCCCCC1 |  | > 100 |  | > 100 |  |  |  |  |  |  |  | > 100 |  |  |  | > 100 |  |  |  | > 100 |
| CCN(CC)CCNC(=O)c1cccc2nc3ccccc3nc12 |  | > 100 |  | 34.3 |  |  |  |  |  | 34.2 |  | 45.9 |  |  |  | > 79.6 |  |  |  | 28.3 |
| C[C@]12CCC(=O)C=C1CC[C@@H]1C2CC[C@]2(C)c3nn(-c4ccccc4)nc3CC12 (stereo not given in full) |  | > 100 |  | > 100 |  |  |  |  |  | > 100 |  | > 100 |  |  |  | > 100 |  |  |  | > 100 |
| O=C1C(Cl)=C(Nc2cccc(O)c2)C(=O)N1Cc1ccc(Cl)cc1Cl | 5.59 | 17.7 | 3.89 | 18.3 | 19.1 | > 100 | 1.66 | 21.8 | 1.11 | 20.4 | 3.49 | 14.7 |  |  | 4.31 | 15.5 | 4.88 | 19.6 | 1.29 | 90.3 |
